In assay [1] the test system is Staphylococcus aureus (ATCC 43300). In words: Antibacterial MIC, broth microdilution (CLSI). The assay is classed as cell-based. As to conditions: for MIC80: Staphylococcus aureus, ATCC43300, read-out: MIC80 S. aureus.
Assay [2] has as its system Enterococcus faecalis (ATCC 51299). In words: Antibacterial MIC, broth microdilution (CLSI). The assay is classed as cell-based. To be noted: for MIC80: Enterococcus faecalis, ATCC51299, read-out: MIC80 E. faecalis. On the technique in general: Dilution methods test growth across graded concentrations, often in twofold steps.
Assay [3] has as its system Escherichia coli (ATCC 25922). As to the kind of experiment: Antibacterial MIC, broth microdilution (CLSI). In kind it is cell-based. As to conditions: for MIC80: Escherichia coli, ATCC25922, read-out: MIC80 E. coli.
Assay [4] relates to Genomic double stranded DNA (salmon). As to the kind of experiment: Fluorescence intercalator displacement (FID) assay, SYBR-safe probe. To be noted: 20 μM compound, 30° C., lower % = stronger binding. The method, then:
(§1) The ability of compounds of the invention to bind to DNA and RNA was assessed using a fluorescence intercalator displacement assay. Genomic double stranded DNA (salmon) or PolyAU double stranded RNA is treated with probe molecule (Sybr-Safe) that increases its fluorescence upon binding to nucleic acids.
(§2) polyAU RNA (Polyadenylic acid—Polyuridylic acid sodium salt, double-stranded homopolymer, P1537, Merck) or genomic DNA (Deoxyribonucleic acid sodium salt from salmon testes, D1626, Merck) was dissolved in 1 mM pH 7.4 phosphate buffer (containing 0.27 mM potassium chloride, 13.7 mM sodium chloride) to a concentration of 1 mg/mL in, SybrSafe (SYBR® Safe DNA Gel Stain, ×10,000 in DMSO, S33102 Invitrogen) was used as supplied by the manufacturer in DMSO, and compounds of the invention were prepared as 10 mM stocks in DMSO. These stock solutions were diluted appropriately with each other and 1 mM phosphate buffer to give test solutions comprised of 20 μM compound of the invention, 12500-fold dilution of SybrSafe and 3.76 ng/mL RNA/DNA. Control solutions of RNA/DNA and SybrSafe, RNA/DNA, and SybrSafe at these concentrations were also prepared. Test and control solutions were heated to 30° C. and the fluorescence of each solution was measured using the SYBER filter setting of a StepOnePlus using melt analysis mode (StepOne Software v2.3). The reduction of fluorescence due to the binding of the compound of the invention to the RNA/DNA was calculated as a normalised percentage based on the fluorescence measured due to the control with SybrSafe and RNA/DNA as maximum and the control with only SybrSafe as minimum.
(§3) A reduction in normalised % is indicative of probe displacement and thus strong nucleic acid binding.

Assay [5] relates to PolyAU double stranded RNA. Described as above. As to conditions: 20 μM compound, 30° C., lower % = stronger binding. The method, then: as §1, §2, §3

The values that follow come from patent US20250313546A1, “NUCLEIC ACID BINDERS” (UNIVERSITY OF STRATHCLYDE, priority 2022, published 2025).

The structures appear in SMILES notation. Converted amounts (≈) assume the structure as drawn. A value given as a limit tells only on which side of the number the result lay.

The MIC80 is an inhibitory concentration at the 80% level, which refers to growth in some studies and to a panel of isolates in others.

For `CN(C)c1ccc(/C=C/c2ccc(C(=O)Nc3cc(C(=O)Nc4cc(C(=O)NCCCCN5CCCC5)n(C)c4)n(C)c3)cn2)cc1` [IVa15, (E)-6-(4-(dimethylamino)styryl)-N-(1-methyl-5-((1-methyl-5-((4-(pyrrolidin-1-yl)butyl)carbamoyl)-1H-pyrrol-3-yl)carbamoyl)-1H-pyrrol-3-yl)nicotinamide], the MIC80 is above 100 µM in assay [1], 25 to 100 µM (≈ 15.9 to 63.7 µg/mL) in assay [2] and above 100 µM in assay [3]. In addition, in assay [4], the “% Normalised Fluorescence with gDNA” value is given as 15%. For the same compound, the “% Normalised Fluorescence with polyAU RNA” value in assay [5] amounted to 8%.

Consider `CN(C)c1ccc(/C=C/c2ccc(C(=O)Nc3c[nH]c(C(=O)Nc4cc(C(=O)NCCN5CCOCC5)n(C)c4)c3)cn2)cc1` [IIIb2, (E)-6-(4-(dimethylamino)styryl)-N-(5-((1-methyl-5-((2-morpholinoethyl)carbamoyl)-1H-pyrrol-3-yl)carbamoyl)-1H-pyrrol-3-yl)nicotinamide], for which the figures for the MIC80 in assay [1], in assay [2] and in assay [3] were 5 to 25 µM (≈ 3.05 to 15.3 µg/mL), above 100 µM and above 100 µM, respectively. For the same compound, the “% Normalised Fluorescence with gDNA” value in assay [4] came to 31%. Further, the “% Normalised Fluorescence with polyAU RNA” value in assay [5] was 85%.

On to `CNC(=O)c1cc(NC(=O)c2cc(NC(=O)c3ccc(/C=C/c4ccc(N(C)C)cc4)nc3)cn2C)cn1C` [IVa13, (E)-6-(4-(dimethylamino)styryl)-N-(1-methyl-5-((1-methyl-5-(methylcarbamoyl)-1H-pyrrol-3-yl)carbamoyl)-1H-pyrrol-3-yl)nicotinamide], for which the figures for the MIC80 in assay [1], in assay [2] and in assay [3] were below 5 µM, below 5 µM and above 100 µM, respectively. Besides, in assay [4], the “% Normalised Fluorescence with gDNA” value amounted to 80%. Also, in assay [5], the “% Normalised Fluorescence with polyAU RNA” value was 83%.

On to `Cn1cc(NC(=O)c2cc(NC(=O)c3ccc(/C=C/c4cnc5ccccc5c4)cc3)cn2C)cc1C(=O)NCCCCN1CCCC1` [IVa12, (E)-1-methyl-4-(1-methyl-4-(4-(2-(quinolin-3-yl)vinyl)benzamido)-1H-pyrrole-2-carboxamido)-N-(4-(pyrrolidin-1-yl)butyl)-1H-pyrrole-2-carboxamide], for which the figures for the MIC80 in assay [1], in assay [2] and in assay [3] were 5 to 25 µM (≈ 3.22 to 16.1 µg/mL), below 5 µM and above 100 µM, respectively. Also, the “% Normalised Fluorescence with gDNA” value in assay [4] is reported as 50%. Further, in assay [5], the “% Normalised Fluorescence with polyAU RNA” value came out at 71%.

As for `CCCCCCC[N+](C)(C)CCNC(=O)c1cc(NC(=O)c2cc(NC(=O)c3ccc(/C=C/c4cnc5ccccc5c4)cc3)cn2C)cn1C` [Ic6, (E)-N,N-dimethyl-N-(2-(1-methyl-4-(1-methyl-4-(4-(2-(quinolin-3-yl)vinyl)benzamido)-1H-pyrrole-2-carboxamido)-1H-pyrrole-2-carboxamido)ethyl)heptan-1-aminium], the “MIC80 S. aureus” value in assay [1] (MIC at 80% inhibition, ATCC 43300) is recorded as “*** (*** means MIC80 <= 5 μM)”. Moreover, in assay [2] (MIC at 80% inhibition, ATCC 51299), the “MIC80 E. faecalis” value is listed as “** (** means 5 μM < MIC80 <= 25 μM)”. Moreover, the “MIC80 E. coli” value in assay [3] (MIC at 80% inhibition, ATCC 25922) is on record as “— (— means MIC80 > 100 μM)”. Also, the “% Normalised Fluorescence with gDNA” value in assay [4] was 50%. The “% Normalised Fluorescence with polyAU RNA” value in assay [5] was determined as 12%.

With `CCNC(=N)CCNC(=O)c1cc(NC(=O)c2cc(NC(=O)c3ccc(/C=C/c4ccc(OC)cc4)cc3)cn2C)cn1C` [Ia20, (E)-N-(3-(ethylamino)-3-iminopropyl)-4-(4-(4-(4-methoxystyryl)benzamido)-1-methyl-1H-pyrrole-2-carboxamido)-1-methyl-1H-pyrrole-2-carboxamide], the values for the MIC80 in assay [1], in assay [2] and in assay [3] were 5 to 25 µM (≈ 2.98 to 14.9 µg/mL), 5 to 25 µM (≈ 2.98 to 14.9 µg/mL) and 25 to 100 µM (≈ 14.9 to 59.6 µg/mL), respectively. Also, in assay [4], the “% Normalised Fluorescence with gDNA” value is 3%. The “% Normalised Fluorescence with polyAU RNA” value in assay [5] was 6%.

As for `CN1CCN(CCNC(=N)CCNC(=O)c2cc(NC(=O)c3cc(NC(=O)c4ccc(/C=C/c5cnc6ccccc6c5)cc4)cn3C)cn2C)CC1` [Ia41, (E)-N-(3-imino-3-((2-(4-methylpiperazin-1-yl)ethyl)amino)propyl)-1-methyl-4-(1-methyl-4-(4-(2-(quinolin-3-yl)vinyl)benzamido)-1H-pyrrole-2-carboxamido)-1H-pyrrole-2-carboxamide], the figures for the MIC80 in assay [1], in assay [2] and in assay [3] were 5 to 25 µM (≈ 3.57 to 17.9 µg/mL), 25 to 100 µM (≈ 17.9 to 71.5 µg/mL) and above 100 µM, respectively. For the same compound, the “% Normalised Fluorescence with gDNA” value in assay [4] was 16%. Moreover, the “% Normalised Fluorescence with polyAU RNA” value in assay [5] came out at 6%.

In the case of `[H]/N=C(\CCNC(=O)c1cc(NC(=O)c2cc(NC(=O)c3ccc(C=Cc4ccc5nonc5c4)cc3)cn2C)cn1C)NCCN1CCN(C)CC1` [Ia42, (E)-4-(4-(2-(benzo[c][1,2,5]oxadiazol-5-yl)vinyl)benzamido)-N-(5-((3-imino-3-((2-(4-methylpiperazin-1-yl)ethyl)amino)propyl)carbamoyl)-1-methyl-1H-pyrrol-3-yl)-1-methyl-1H-pyrrole-2-carboxamide], the values for the MIC80 in assay [1], in assay [2] and in assay [3] were 5 to 25 µM (≈ 3.53 to 17.6 µg/mL), 5 to 25 µM (≈ 3.53 to 17.6 µg/mL) and above 100 µM, respectively. Further, the “% Normalised Fluorescence with gDNA” value in assay [4] is 20%. Moreover, the “% Normalised Fluorescence with polyAU RNA” value in assay [5] came out at 4%.

With `CN(C)c1ccc(/C=C/c2ccc(C(=O)Nc3cc(C(=O)Nc4cc(C(=O)NCCCCN5CCCCC5)n(C)c4)n(C)c3)cn2)cc1` [IVa14, (E)-6-(4-(dimethylamino)styryl)-N-(1-methyl-5-((1-methyl-5-((4-(piperidin-1-yl)butyl)carbamoyl)-1H-pyrrol-3-yl)carbamoyl)-1H-pyrrol-3-yl)nicotinamide], the MIC80 in assay [1] is 5 to 25 µM (≈ 3.25 to 16.3 µg/mL); in assay [2], 25 to 100 µM (≈ 16.3 to 65.1 µg/mL); in assay [3], above 100 µM. The “% Normalised Fluorescence with gDNA” value in assay [4] was determined as 19%. Moreover, the “% Normalised Fluorescence with polyAU RNA” value in assay [5] came to 12%.

Take `Cn1cc(NC(=O)c2cc(NC(=O)c3ccc(/C=C/c4cnc5ccccc5c4)cc3)cn2C)cc1C(=O)NCCCCN1CCCCC1` [IVa11, (E)-1-methyl-4-(1-methyl-4-(4-(2-(quinolin-3-yl)vinyl)benzamido)-1H-pyrrole-2-carboxamido)-N-(4-(piperidin-1-yl)butyl)-1H-pyrrole-2-carboxamide]: the MIC80 in assay [1] was 5 to 25 µM (≈ 3.29 to 16.4 µg/mL); in assay [2], 5 to 25 µM (≈ 3.29 to 16.4 µg/mL); in assay [3], above 100 µM. The “% Normalised Fluorescence with gDNA” value in assay [4] turned out to be 42%. Also, the “% Normalised Fluorescence with polyAU RNA” value in assay [5] turned out to be 68%.

As to `[H]/N=C(\CCNC(=O)c1cc(NC(=O)c2cc(NC(=O)c3ccc(C=Cc4ccc5nonc5c4)cc3)cn2C)cn1C)NCCc1ccccc1` [Ia43, (E)-4-(4-(2-(benzo[c][1,2,5]oxadiazol-5-yl)vinyl)benzamido)-N-(5-((3-imino-3-(phenethylamino)propyl)carbamoyl)-1-methyl-1H-pyrrol-3-yl)-1-methyl-1H-pyrrole-2-carboxamide], the MIC80 in assay [1] is below 5 µM; in assay [2] it was below 5 µM; in assay [3], above 100 µM. Further, in assay [4], the “% Normalised Fluorescence with gDNA” value amounted to 15%. Besides, the “% Normalised Fluorescence with polyAU RNA” value in assay [5] is reported as 42%.

In the case of `CC/N=C(/CCNC(=O)c1cc(NC(=O)c2cc(NC(=O)c3ccc(/C=C/c4ccc5nonc5c4)cc3)cn2C)cn1C)NCC` [Ia25, 4-(4-((E)-2-(benzo[c][1,2,5]oxadiazol-5-yl)vinyl)benzamido)-N-(5-(((Z)-3-(ethylamino)-3-(ethylimino)propyl)carbamoyl)-1-methyl-1H-pyrrol-3-yl)-1-methyl-1H-pyrrole-2-carboxamide], the MIC80 in assay [1] is 25 to 100 µM (≈ 15.9 to 63.6 µg/mL); in assay [2], above 100 µM; in assay [3], above 100 µM. Moreover, in assay [4], the “% Normalised Fluorescence with gDNA” value is 28%. Besides, the “% Normalised Fluorescence with polyAU RNA” value in assay [5] is reported as 12%.

As for `CONC(=N)CCNC(=O)c1cc(NC(=O)c2cc(NC(=O)c3ccc(/C=C/c4cnc5ccccc5c4)cc3)cn2C)cn1C` [Ia28, (E)-N-(3-imino-3-(methoxyamino)propyl)-1-methyl-4-(1-methyl-4-(4-(2-(quinolin-3-yl)vinyl)benzamido)-1H-pyrrole-2-carboxamido)-1H-pyrrole-2-carboxamide], the values for the MIC80 in assay [1], in assay [2] and in assay [3] were below 5 µM, below 5 µM and above 100 µM, respectively. Moreover, in assay [4], the “% Normalised Fluorescence with gDNA” value was 34%. Also, the “% Normalised Fluorescence with polyAU RNA” value in assay [5] amounted to 66%.

As for `[H]/N=C(\CCNC(=O)c1cc(NC(=O)c2cc(NC(=O)c3ccc(C=Cc4ccc5nonc5c4)cc3)cn2C)cn1C)NCCOCCOCCOC` [Ia40, (E)-4-(4-(2-(benzo[c][1,2,5]oxadiazol-5-yl)vinyl)benzamido)-N-(5-((12-imino-2,5,8-trioxa-11-azatetradecan-14-yl)carbamoyl)-1-methyl-1H-pyrrol-3-yl)-1-methyl-1H-pyrrole-2-carboxamide], the MIC80 in assay [1] is below 5 µM; in assay [2], 5 to 25 µM (≈ 3.63 to 18.1 µg/mL); in assay [3], above 100 µM. Moreover, in assay [4], the “% Normalised Fluorescence with gDNA” value turned out to be 32%. In addition, the “% Normalised Fluorescence with polyAU RNA” value in assay [5] is on record as 13%.
